Laboratory results reported in EP3046573B1, “AMYLIN ANALOGUES” (Zealand Pharma A/S, priority 2013, dated 2015).
pEC50: −log10 of the molar value. Like-named read-outs stand apart in the source and are kept apart here. Numbered stars: 1 amine (or outer) side, 2 acyl side, 3 side chain; on linkers, the order of the positions; unused ones are H or OH. Bridge positions count the residues as written; N and C are the ends. Square brackets hold non-standard residues; d marks the D form. Peptide text beside a SMILES is read from it. * marks the point of attachment. C20 diacid = O=C(O)CCCCCCCCCCCCCCCCCCC(=O)*; Pro(4R-NH2) = N[C@H]1CN[C@H](C(=O)O)C1; γGlu = O=C(O)[C@H](CCC(=O)[*:2])N[*:1]; NMeI = CC[C@H](C)[C@H](NC)C(=O)O; Pip = O=C(O)[C@@H]1CCCCN1; Aze = O=C(O)[C@@H]1CCN1; Sar = CNCC(=O)O

Columns and labels:
[1] = target: T1, human calcitonin receptor (hCTR2) (Homo sapiens, UniProt P30988); experiment: hCTR2 assay: induction of cAMP (AlphaScreen cAMP Assay kit) in COS7 cells expressing hCTR2; assay type: cell-based
T1 construct: expressed in transfected cells
T1 sequence (P30988 25-474): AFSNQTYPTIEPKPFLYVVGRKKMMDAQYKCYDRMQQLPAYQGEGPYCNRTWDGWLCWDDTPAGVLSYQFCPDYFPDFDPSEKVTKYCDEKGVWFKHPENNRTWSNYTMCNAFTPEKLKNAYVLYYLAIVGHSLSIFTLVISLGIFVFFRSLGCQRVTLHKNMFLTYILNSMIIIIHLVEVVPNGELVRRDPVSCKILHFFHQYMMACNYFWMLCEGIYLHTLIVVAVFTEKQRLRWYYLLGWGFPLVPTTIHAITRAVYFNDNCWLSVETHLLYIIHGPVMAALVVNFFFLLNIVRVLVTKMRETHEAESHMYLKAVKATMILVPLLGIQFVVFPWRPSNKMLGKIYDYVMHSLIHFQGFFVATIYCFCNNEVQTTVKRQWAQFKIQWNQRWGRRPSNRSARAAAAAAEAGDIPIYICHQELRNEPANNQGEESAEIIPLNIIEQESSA
In short: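 COS7 stable hCTR2 clone (RAMP-free); peptide dose-response 15 min 37° C in Tyrode pH 7.4 + 100 µM IBMX + 0.1% casein; lysis 10 min RT; AlphaScreen cAMP; 4PL fit.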

[2] = target: T2, human amylin receptor 3 (hAMYR3) consisting of hCTR2 co-expressed with human Receptor Activity Modifying Protein 3 (hRAMP3) (Homo sapiens, UniProt O60896+P30988); experiment: hAMYR3 assay: induction of cAMP (AlphaScreen cAMP Assay kit) in COS7 cells expressing hAMYR3; assay type: cell-based
T2 construct: expressed in transfected cells
T2 sequence (P30988 25-474): T1 sequence (P30988 25-474)
T2 sequence (O60896 24-148 partner): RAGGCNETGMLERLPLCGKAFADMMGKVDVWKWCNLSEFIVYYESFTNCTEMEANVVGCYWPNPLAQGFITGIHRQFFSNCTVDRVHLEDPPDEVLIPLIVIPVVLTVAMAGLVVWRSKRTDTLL
In short: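 Stable COS7 clone co-expressing hCTR2 and hRAMP3, stimulated 15 min at 37° C with increasing peptide in Tyrode buffer pH 7.4 with 100 µM IBMX and 0.1% casein. cAMP measured by AlphaScreen after lysis; EC50 and % efficacy versus pramlintide from 4PL fit.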

[3] = Solubility assessment (turbidity absorbance at 325 nm); assay type: physicochemical; conditions: stock 2 mg/ml diluted 1:1, ambient temperature (typically 25°C), n=1; for Solubility, Acetate buffer pH 4: 100 mM acetate buffer pH 4.0; for Solubility, Acetate buffer pH 5: 100 mM acetate buffer pH 5.0; for Solubility, Histidine buffer pH 6: 100 mM histidine buffer pH 6.0; for Solubility, Histidine buffer pH 7: 100 mM histidine buffer pH 7.0; for Solubility, Phosphate buffer pH 6: 100 mM phosphate buffer pH 6.0; for Solubility, Phosphate buffer pH 7: 100 mM phosphate buffer pH 7.0; for Solubility, Phosphate buffer pH 7.5: 100 mM phosphate buffer pH7.5
In short: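 Peptide stock (2 mg/ml) in water acidified to pH 2.5 with HCl was diluted 1:1 into 100 mM acetate (pH 4.0, 5.0), histidine (pH 6.0, 7.0) or phosphate (pH 6.0, 7.0, 7.5) buffer. A280 and A325 were read at about 25°C, n=1. A325 ≤ 0.02 meant solubility ≥ 1 mg/ml.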

[4] = cAMP induction in COS7 cells expressing hCTR2, average of a minimum of 3 determinations, read-out: hCTR2 EC50
[5] = cAMP induction in COS7 cells expressing hAMYR3, average of a minimum of 3 determinations, read-out: hAMY R3 EC50

SMILES | pEC50 [1] | pEC50 [2] | Solubility, Acetate buffer pH 4 [3] | Solubility, Acetate buffer pH 5 [3] | Solubility, Histidine buffer pH 6 [3] | Solubility, Histidine buffer pH 7 [3] | Solubility, Phosphate buffer pH 6 [3] | Solubility, Phosphate buffer pH 7 [3] | Solubility, Phosphate buffer pH 7.5 [3] | pEC50 [1, 4] | pEC50 [2, 5]
CC[C@H](C)[C@@H](C(=O)N[C@@H](CC(C)C)C(=O)N[C@@H](CO)C(=O)N[C@@H](CO)C(=O)N[C@H](C(=O)N[C@@H](CC(N)=O)C(=O)N[C@H](C(=O)NCC(=O)N[C@@H](CO)C(=O)N[C@@H](CC(N)=O)C(=O)N[C@H](C(=O)N1CCC[C@@H]1C(N)=O)[C@@H](C)O)C(C)C)[C@@H](C)O)N(C)C(=O)[C@H](C)NC(=O)CN(C)C(=O)[C@H](Cc1ccccc1)NC(=O)[C@H](CC(N)=O)NC(=O)[C@H](CC(N)=O)NC(=O)[C@H](CO)NC(=O)[C@H](CO)NC(=O)[C@H](CCCNC(=N)N)NC(=O)[C@H](Cc1c[nH]cn1)NC(=O)[C@H](CC(C)C)NC(=O)[C@H](Cc1ccccc1)NC(=O)[C@H](CCC(=O)O)NC(=O)[C@H](C)NC(=O)[C@H](CC(C)C)NC(=O)[C@H](CCCNC(=N)N)NC(=O)[C@H](CCC(N)=O)NC(=O)[C@@H](NC(=O)[C@H](C)NC(=O)[C@@H]1CSSC[C@H](NC(=O)[C@H](CCCNC(=N)N)NC(=O)CC[C@H](NC(=O)CCCCCCCCCCCCCCCCCCC(=O)O)C(=O)O)C(=O)N[C@@H](CC(N)=O)C(=O)N[C@@H]([C@@H](C)O)C(=O)N[C@@H](C)C(=O)N[C@@H]([C@@H](C)O)C(=O)N1)[C@@H](C)O [Compound 104, [19CD]-isoGlu-RC()NTATC()ATQRLAEFLHRSSNNF-Gly(Me)-A-Ile(Me)-LSSTNVGSNT-DPro-NH2] ({C20 diacid-γGlu}-RCNTATCATQRLAEFLHRSSNNF[Sar]A[NMeI]LSSTNVGSNT[dP]-NH2; disulfide 2-7) | 9.15 | 8.32 | SS (SS indicates solubility ≥ 1mg/ml) | SS (SS indicates solubility ≥ 1mg/ml) | SS (SS indicates solubility ≥ 1mg/ml) | SS (SS indicates solubility ≥ 1mg/ml) | II (II indicates solubility ≤ 1 mg/ml) | SS (SS indicates solubility ≥ 1mg/ml) | SS (SS indicates solubility ≥ 1mg/ml) | – | –
CC[C@H](C)[C@@H](C(=O)N[C@@H](CC(C)C)C(=O)N[C@@H](CO)C(=O)N[C@@H](CO)C(=O)N[C@H](C(=O)N[C@@H](CC(N)=O)C(=O)N[C@H](C(=O)NCC(=O)N[C@@H](CO)C(=O)N[C@@H](CC(N)=O)C(=O)N[C@H](C(=O)N1CC[C@H]1C(N)=O)[C@@H](C)O)C(C)C)[C@@H](C)O)N(C)C(=O)CN(C)C(=O)[C@H](Cc1ccccc1)NC(=O)[C@H](CC(N)=O)NC(=O)[C@H](CC(N)=O)NC(=O)[C@H](CO)NC(=O)[C@H](CO)NC(=O)[C@H](CCCNC(=N)N)NC(=O)[C@H](Cc1c[nH]cn1)NC(=O)[C@H](CC(C)C)NC(=O)[C@H](Cc1ccccc1)NC(=O)[C@H](CCC(=O)O)NC(=O)[C@H](C)NC(=O)[C@H](CC(C)C)NC(=O)[C@H](CCCNC(=N)N)NC(=O)[C@H](CCC(N)=O)NC(=O)[C@@H](NC(=O)[C@H](C)NC(=O)[C@@H]1CSSC[C@H](NC(=O)[C@H](CCCNC(=N)N)NC(=O)CC[C@H](NC(=O)CCCCCCCCCCCCCCCCCCC(=O)O)C(=O)O)C(=O)N[C@@H](CC(N)=O)C(=O)N[C@@H]([C@@H](C)O)C(=O)N[C@@H](C)C(=O)N[C@@H]([C@@H](C)O)C(=O)N1)[C@@H](C)O [Compound 108, [19CD]-isoGlu-RC()NTATC()ATQRLAEFLHRSSNNF-Gly(Me)-Ile(Me)-LSSTNVGSNT-Aze-NH2] ({C20 diacid-γGlu}-RCNTATCATQRLAEFLHRSSNNF[Sar][NMeI]LSSTNVGSNT[Aze]-NH2; disulfide 2-7) | – | – | SS (SS indicates solubility ≥ 1mg/ml) | SS (SS indicates solubility ≥ 1mg/ml) | SS (SS indicates solubility ≥ 1mg/ml) | SS (SS indicates solubility ≥ 1mg/ml) | SS (SS indicates solubility ≥ 1mg/ml) | SS (SS indicates solubility ≥ 1mg/ml) | SS (SS indicates solubility ≥ 1mg/ml) | 9.49 | 9.17
CC[C@H](C)[C@@H](C(=O)N[C@@H](CC(C)C)C(=O)N[C@@H](CO)C(=O)N[C@@H](CO)C(=O)N[C@H](C(=O)N[C@@H](CC(N)=O)C(=O)N[C@H](C(=O)NCC(=O)N[C@@H](CO)C(=O)N[C@@H](CC(N)=O)C(=O)N[C@H](C(=O)N1CCCC[C@H]1C(N)=O)[C@@H](C)O)C(C)C)[C@@H](C)O)N(C)C(=O)[C@H](C)NC(=O)CN(C)C(=O)[C@H](Cc1ccccc1)NC(=O)[C@H](CC(N)=O)NC(=O)[C@H](CC(N)=O)NC(=O)[C@H](CO)NC(=O)[C@H](CO)NC(=O)[C@H](CCCNC(=N)N)NC(=O)[C@H](Cc1c[nH]cn1)NC(=O)[C@H](CC(C)C)NC(=O)[C@H](Cc1ccccc1)NC(=O)[C@H](CCC(=O)O)NC(=O)[C@H](C)NC(=O)[C@H](CC(C)C)NC(=O)[C@H](CCCNC(=N)N)NC(=O)[C@H](CCC(N)=O)NC(=O)[C@@H](NC(=O)[C@H](C)NC(=O)[C@@H]1CSSC[C@H](NC(=O)[C@H](CCCNC(=N)N)NC(=O)CC[C@H](NC(=O)CCCCCCCCCCCCCCCCCCC(=O)O)C(=O)O)C(=O)N[C@@H](CC(N)=O)C(=O)N[C@@H]([C@@H](C)O)C(=O)N[C@@H](C)C(=O)N[C@@H]([C@@H](C)O)C(=O)N1)[C@@H](C)O [Compound 109, [19CD]-isoGlu-RC()NTATC()ATQRLAEFLHRSSNNF-Gly(Me)-A-Ile(Me)-LSSTNVGSNT-Pip-NH2] ({C20 diacid-γGlu}-RCNTATCATQRLAEFLHRSSNNF[Sar]A[NMeI]LSSTNVGSNT[Pip]-NH2; disulfide 2-7) | 9.52 | 9.28 | SS (SS indicates solubility ≥ 1mg/ml) | SS (SS indicates solubility ≥ 1mg/ml) | SS (SS indicates solubility ≥ 1mg/ml) | SS (SS indicates solubility ≥ 1mg/ml) | II (II indicates solubility ≤ 1 mg/ml) | SS (SS indicates solubility ≥ 1mg/ml) | SS (SS indicates solubility ≥ 1mg/ml) | – | –
CC[C@H](C)[C@@H](C(=O)N[C@@H](CC(C)C)C(=O)N[C@@H](CO)C(=O)N[C@@H](CO)C(=O)N[C@H](C(=O)N[C@@H](CC(N)=O)C(=O)N[C@H](C(=O)NCC(=O)N[C@@H](CO)C(=O)N[C@@H](CC(N)=O)C(=O)N[C@H](C(=O)N1C[C@H](N)C[C@H]1C(N)=O)[C@@H](C)O)C(C)C)[C@@H](C)O)N(C)C(=O)CN(C)C(=O)[C@H](Cc1ccccc1)NC(=O)[C@H](CC(N)=O)NC(=O)[C@H](CC(N)=O)NC(=O)[C@H](CO)NC(=O)[C@H](CO)NC(=O)[C@H](CCCNC(=N)N)NC(=O)[C@H](Cc1c[nH]cn1)NC(=O)[C@H](CC(C)C)NC(=O)[C@H](Cc1ccccc1)NC(=O)[C@H](CCC(=O)O)NC(=O)[C@H](C)NC(=O)[C@H](CC(C)C)NC(=O)[C@H](CCCNC(=N)N)NC(=O)[C@H](CCC(N)=O)NC(=O)[C@@H](NC(=O)[C@H](C)NC(=O)[C@@H]1CSSC[C@H](NC(=O)[C@H](CCCNC(=N)N)NC(=O)CC[C@H](NC(=O)CCCCCCCCCCCCCCCCCCC(=O)O)C(=O)O)C(=O)N[C@@H](CC(N)=O)C(=O)N[C@@H]([C@@H](C)O)C(=O)N[C@@H](C)C(=O)N[C@@H]([C@@H](C)O)C(=O)N1)[C@@H](C)O [Compound 111, [19CD]-isoGlu-RC()NTATC()ATQRLAEFLHRSSNNF-Gly(Me)-Ile(Me)-LSSTNVGSNT-Apr-NH2] ({C20 diacid-γGlu}-RCNTATCATQRLAEFLHRSSNNF[Sar][NMeI]LSSTNVGSNT[Pro(4R-NH2)]-NH2; disulfide 2-7) | – | – | SS (SS indicates solubility ≥ 1mg/ml) | SS (SS indicates solubility ≥ 1mg/ml) | SS (SS indicates solubility ≥ 1mg/ml) | SS (SS indicates solubility ≥ 1mg/ml) | SS (SS indicates solubility ≥ 1mg/ml) | SS (SS indicates solubility ≥ 1mg/ml) | SS (SS indicates solubility ≥ 1mg/ml) | 9.85 | 9.68
